Measurements from ChEMBL document CHEMBL4346715, “Antibacterial activity study of 1,2,4-triazole derivatives” (Eur J Med Chem, 2019).
Converted amounts (≈) assume the structure as drawn. Blank lines part the entries; values can stand above or below the compound they belong to.

What was measured:
Bacillus subtilis = experiment: Antibacterial activity against Bacillus subtilis; type: functional
Candida albicans [1] = experiment: Antifungal activity against Candida albicans; type: functional
Staphylococcus aureus [2] = experiment: Antibacterial activity against Staphylococcus aureus; type: functional
Aspergillus niger = experiment: Antifungal activity against Aspergillus niger; type: functional
Escherichia coli [3] = experiment: Antibacterial activity against Escherichia coli; type: functional
Pseudomonas aeruginosa [4] = experiment: Antibacterial activity against Pseudomonas aeruginosa; type: functional
Staphylococcus aureus [5] = experiment: Antibacterial activity against Staphylococcus aureus incubated for 18 hrs post 30 mins pre-diffusion by disk diffusion method; type: functional
Escherichia coli [6] = experiment: Antibacterial activity against Escherichia coli incubated for 18 hrs post 30 mins pre-diffusion by disk diffusion method; type: functional
Proteus mirabilis = experiment: Antibacterial activity against Proteus mirabilis ATCC 35659 after 24 hrs by microdilution method; type: functional; details: ATCC 35659, 24 h
Aspergillus brasiliensis = experiment: Antifungal activity against Aspergillus brasiliensis ATCC 16404 after 24 hrs by microdilution method; type: functional; details: ATCC 16404, 24 h
Staphylococcus aureus [7] = experiment: Antibacterial activity against Staphylococcus aureus ATCC 25923 after 24 hrs by microdilution method; type: functional; details: ATCC 25923, 24 h
Bacillus cereus = experiment: Antibacterial activity against Bacillus cereus ATCC 10876 after 24 hrs by microdilution method; type: functional; details: ATCC 10876, 24 h
Enterococcus faecalis = experiment: Antibacterial activity against Enterococcus faecalis ATCC 29212 after 24 hrs by microdilution method; type: functional; details: ATCC 29212, 24 h
Candida albicans [8] = experiment: Antifungal activity against Candida albicans ATCC 50193 after 24 hrs by microdilution method; type: functional; details: ATCC 50193, 24 h
Pseudomonas aeruginosa [9] = experiment: Antibacterial activity against Pseudomonas aeruginosa ATCC 27853 after 24 hrs by microdilution method; type: functional; details: ATCC 27853, 24 h
Escherichia coli [10] = experiment: Antibacterial activity against Escherichia coli ATCC 25922 after 24 hrs by microdilution method; type: functional; details: ATCC 25922, 24 h
Pseudomonas aeruginosa [11] = experiment: Antibacterial activity against Pseudomonas aeruginosa ATCC 27853 after 24 hrs by broth microdilution method; type: functional; details: ATCC 27853, 24 h
Salmonella typhimurium = experiment: Antibacterial activity against Salmonella typhimurium ATCC 14028 after 24 hrs by broth microdilution method; type: functional, Salmonella enterica subsp. enterica serovar Typhimurium; details: Salmonella enterica, ATCC 14028, 24 h
Staphylococcus aureus [12] = experiment: Antibacterial activity against Staphylococcus aureus ATCC 49444 after 24 hrs by broth microdilution method; type: functional; details: ATCC 49444, 24 h
Listeria monocytogenes = experiment: Antibacterial activity against Listeria monocytogenes ATCC 35152 after 24 hrs by broth microdilution method; type: functional; details: ATCC 35152, 24 h
Escherichia coli [13] = experiment: Antibacterial activity against Escherichia coli after 24 hrs by broth microdilution method; type: functional

MIC (Staphylococcus aureus [5]): 1.6 to 250 µg/mL (≈ 3.85 to 601 µM)
MIC (Escherichia coli [6]): 1.6 to 250 µg/mL (≈ 3.85 to 601 µM)
Compound: Fc1cccc(-c2nnc(Sc3cc(Cl)nc(Sc4ccccc4)n3)[nH]2)c1

MIC (Staphylococcus aureus [5]): 1.6 to 250 µg/mL (≈ 3.6 to 563 µM)
MIC (Escherichia coli [6]): 1.6 to 250 µg/mL (≈ 3.6 to 563 µM)
Compound: COc1cc(-c2nnc(Sc3cc(Cl)nc(Sc4ccccc4)n3)[nH]2)ccc1O

MIC (Staphylococcus aureus [5]): 1.6 to 250 µg/mL (≈ 4.4 to 687 µM)
MIC (Escherichia coli [6]): 1.6 to 250 µg/mL (≈ 4.4 to 687 µM)
Compound: CSc1nc(Cl)cc(Sc2nnc(-c3cc(C)cc(C)c3)[nH]2)n1

MIC (Bacillus subtilis): 10.2 to 162 µg/mL (≈ 36.3 to 578 µM)
MIC (Candida albicans [1]): 10.2 to 162 µg/mL (≈ 36.3 to 578 µM)
MIC (Staphylococcus aureus [2]): 14.1 to 17.2 µg/mL (≈ 50.1 to 61.1 µM)
MIC (Aspergillus niger): 10.2 to 162 µg/mL (≈ 36.3 to 578 µM)
MIC (Escherichia coli [3]): 10.2 to 162 µg/mL (≈ 36.3 to 578 µM)
MIC (Pseudomonas aeruginosa [4]): 14.1 to 17.2 µg/mL (≈ 50.1 to 61.1 µM)
Compound: Sc1nnc(-c2ccncc2)n1/N=C/c1ccccc1

MIC (Staphylococcus aureus [5]): 1.6 to 250 µg/mL (≈ 3.96 to 619 µM)
MIC (Escherichia coli [6]): 1.6 to 250 µg/mL (≈ 3.96 to 619 µM)
Compound: CSc1nc(Cl)cc(Sc2nnc(-c3cccc(C(F)(F)F)c3)[nH]2)n1

The remaining lines, values behind:

Compound: COc1ccc(/C=N/n2c(S)nnc2-c2ccncc2)cc1
MIC (Bacillus subtilis): 10.2 to 162 µg/mL (≈ 32.8 to 522 µM)
MIC (Candida albicans [1]): 10.2 to 162 µg/mL (≈ 32.8 to 522 µM)
MIC (Staphylococcus aureus [2]): 10.2 to 162 µg/mL (≈ 32.8 to 522 µM)
MIC (Aspergillus niger): 10.2 to 162 µg/mL (≈ 32.8 to 522 µM)
MIC (Escherichia coli [3]): 10.2 to 162 µg/mL (≈ 32.8 to 522 µM)
MIC (Pseudomonas aeruginosa [4]): 10.2 to 162 µg/mL (≈ 32.8 to 522 µM)

Compound: CCCCCCCCCCCCCCn1nnc(-c2n[nH]c(=S)n2N)c1-c1n[nH]c(=S)n1N
MIC (Proteus mirabilis): 1 to 16 µg/mL (≈ 2.03 to 32.4 µM)
MIC (Aspergillus brasiliensis): 1 to 16 µg/mL (≈ 2.03 to 32.4 µM)
MIC (Staphylococcus aureus [7]): 1 to 16 µg/mL (≈ 2.03 to 32.4 µM)
MIC (Bacillus cereus): 1 to 16 µg/mL (≈ 2.03 to 32.4 µM)
MIC (Enterococcus faecalis): 1 to 16 µg/mL (≈ 2.03 to 32.4 µM)
MIC (Candida albicans [8]): 1 to 16 µg/mL (≈ 2.03 to 32.4 µM)
MIC (Pseudomonas aeruginosa [9]): 1 to 16 µg/mL (≈ 2.03 to 32.4 µM)
MIC (Escherichia coli [10]): 1 to 16 µg/mL (≈ 2.03 to 32.4 µM)

Compound: Cc1nc(-c2ccccc2)sc1-c1nnc(S)n1/N=C/c1cccc(O)c1
MIC (Pseudomonas aeruginosa [11]): 1.95 to 62.5 µg/mL (≈ 4.96 to 159 µM)
MIC (Salmonella typhimurium): 1.95 to 62.5 µg/mL (≈ 4.96 to 159 µM)
MIC (Staphylococcus aureus [12]): 1.95 to 62.5 µg/mL (≈ 4.96 to 159 µM)
MIC (Listeria monocytogenes): 1.95 to 62.5 µg/mL (≈ 4.96 to 159 µM)
MIC (Escherichia coli [13]): 1.95 to 62.5 µg/mL (≈ 4.96 to 159 µM)

Compound: Cc1cc(C)cc(-c2nnc(Sc3cc(Cl)nc(Sc4ccccc4)n3)[nH]2)c1
MIC (Staphylococcus aureus [5]): 1.6 to 250 µg/mL (≈ 3.76 to 587 µM)
MIC (Escherichia coli [6]): 1.6 to 250 µg/mL (≈ 3.76 to 587 µM)

Compound: CCCCCCCCCCn1nnc(-c2n[nH]c(=S)n2N)c1-c1n[nH]c(=S)n1N
MIC (Proteus mirabilis): 1 to 128 µg/mL (≈ 2.29 to 293 µM)
MIC (Aspergillus brasiliensis): 1 to 128 µg/mL (≈ 2.29 to 293 µM)
MIC (Staphylococcus aureus [7]): 1 to 128 µg/mL (≈ 2.29 to 293 µM)
MIC (Bacillus cereus): 1 to 128 µg/mL (≈ 2.29 to 293 µM)
MIC (Enterococcus faecalis): 1 to 128 µg/mL (≈ 2.29 to 293 µM)
MIC (Candida albicans [8]): 1 to 128 µg/mL (≈ 2.29 to 293 µM)
MIC (Pseudomonas aeruginosa [9]): 1 to 128 µg/mL (≈ 2.29 to 293 µM)
MIC (Escherichia coli [10]): 1 to 128 µg/mL (≈ 2.29 to 293 µM)

Compound: CSc1nccc(Sc2nnc(-c3cc(C)cc(C)c3)[nH]2)n1
MIC (Staphylococcus aureus [5]): 1.6 to 250 µg/mL (≈ 4.86 to 759 µM)
MIC (Escherichia coli [6]): 1.6 to 250 µg/mL (≈ 4.86 to 759 µM)

Compound: CC/C=N/n1c(S)nnc1-c1ccncc1
MIC (Bacillus subtilis): 10.2 to 162 µg/mL (≈ 43.7 to 697 µM)
MIC (Candida albicans [1]): 10.2 to 162 µg/mL (≈ 43.7 to 697 µM)
MIC (Staphylococcus aureus [2]): 10.2 to 162 µg/mL (≈ 43.7 to 697 µM)
MIC (Aspergillus niger): 10.2 to 162 µg/mL (≈ 43.7 to 697 µM)
MIC (Escherichia coli [3]): 10.2 to 162 µg/mL (≈ 43.7 to 697 µM)
MIC (Pseudomonas aeruginosa [4]): 10.2 to 162 µg/mL (≈ 43.7 to 697 µM)

Compound: Cc1nc(-c2ccccc2)sc1-c1nnc(S)n1/N=C/c1cccc([N+](=O)[O-])c1
MIC (Pseudomonas aeruginosa [11]): 1.95 to 62.5 µg/mL (≈ 4.62 to 148 µM)
MIC (Salmonella typhimurium): 1.95 to 62.5 µg/mL (≈ 4.62 to 148 µM)
MIC (Staphylococcus aureus [12]): 1.95 to 62.5 µg/mL (≈ 4.62 to 148 µM)
MIC (Listeria monocytogenes): 1.95 to 62.5 µg/mL (≈ 4.62 to 148 µM)
MIC (Escherichia coli [13]): 1.95 to 62.5 µg/mL (≈ 4.62 to 148 µM)
